Assay results as given in PMC6367941 (Journal of computer-aided molecular design, 2018).

Assay: UV-metric pKa measurement with methanol cosolvent
Assay type: physicochemical
Conditions: Yasuda-Shedlovsky extrapolation to 0% methanol from psKa in ISA methanol:water mixtures, 25.0 ± 0.5 °C, ~150 mM KCl, mean ± SEM of three replicates

| pKa1 | SMILES |
| --- | --- |
| 5.03 ± 0.01 | FC(F)(F)c1cccc(Nc2ncnc3ccccc23)c1 [SM02] |
| 5.37 ± 0.01 | COc1cccc(Nc2ncnc3ccccc23)c1.Cl [SM09] |
